Measurements published in patent publication US12054463B2, “Radiolabeled microtubule imaging compounds and uses thereof” (The Trustees of Columbia University in the City of New York, priority 2017, dated 2024).
pIC50, pKi: −log10 of the molar value.

Legend:
PBR = PBR (Homo sapiens, UniProt P30536); assay: Affinity to brain targets (panel); type: binding
H1 = H1 (Homo sapiens, UniProt P35367); assay: Affinity to brain targets (panel); type: binding; details: H1: histamine
panel of kinases = details: cited from earlier work
VMAT = assay: Affinity to brain targets (panel); type: binding; details: VMAT (VMAT 1,2): vesicular monoamine transporter
5-HT1A-1E = assay: Affinity to brain targets (panel); type: binding
KA = assay: Affinity to brain targets (panel); type: binding; details: KA (KAR): Kainate
MOR = MOR (Homo sapiens, UniProt P35372); assay: Affinity to brain targets (panel); type: binding; details: MOR: mu opioid receptor
H2 = H2 (Homo sapiens, UniProt P25021); assay: Affinity to brain targets (panel); type: binding; details: H2: histamine
Sigma1 = Sigma1 (Homo sapiens, UniProt Q99720); assay: Affinity to brain targets (panel); type: binding
PKC = assay: Affinity to brain targets (panel); type: binding; details: PKC: Protein kinase C
α2A-2C = assay: Affinity to brain targets (panel); type: binding
NET = NET (Homo sapiens, UniProt P23975); assay: Affinity to brain targets (panel); type: binding; details: NET: norepinephrine transporter
Microtubule = details: MT; reference 12; cited from earlier work
KOR = KOR (Homo sapiens, UniProt P41145); assay: Affinity to brain targets (panel); type: binding; details: KOR: kappa opioid receptors
NT = assay: Affinity to brain targets (panel); type: binding; details: NT: neurotrophin
[1] = references 12-14; cited from earlier work
tumor xenografts = details: references 12-14; cited from earlier work
MDR1 = MDR1 (Homo sapiens, UniProt P08183); assay: Affinity to brain targets (panel); type: binding; details: MDR1: multidrug resistance
Smoothened = Smoothened (Homo sapiens, UniProt Q99835); assay: Affinity to brain targets (panel); type: binding
EP = assay: Affinity to brain targets (panel); type: binding; details: EP: prostanoid receptors
DOR = DOR (Homo sapiens, UniProt P41143); assay: Affinity to brain targets (panel); type: binding; details: DOR: delta opioid receptors
H3, H4 = assay: Affinity to brain targets (panel); type: binding; details: H3, H4: histamine
Adenosine = assay: Affinity to brain targets (panel); type: binding; details: Adenosine (A)
mGluR = assay: Affinity to brain targets (panel); type: binding; details: mGluR (mGluRs): metabotropic glutamate receptors
NOP = NOP (Homo sapiens, UniProt P41146); assay: Affinity to brain targets (panel); type: binding
NK = assay: Affinity to brain targets (panel); type: binding; details: NK: neurokinin
NMDA = assay: Affinity to brain targets (panel); type: binding
M = assay: Affinity to brain targets (panel); type: binding; details: M: muscarinic
α1A-1C = assay: Affinity to brain targets (panel); type: binding
Oxytocin = target: T1, Oxytocin (Homo sapiens, UniProt P30559); assay: Affinity to brain targets (panel); type: binding
T1 sequence (P30559 1-389): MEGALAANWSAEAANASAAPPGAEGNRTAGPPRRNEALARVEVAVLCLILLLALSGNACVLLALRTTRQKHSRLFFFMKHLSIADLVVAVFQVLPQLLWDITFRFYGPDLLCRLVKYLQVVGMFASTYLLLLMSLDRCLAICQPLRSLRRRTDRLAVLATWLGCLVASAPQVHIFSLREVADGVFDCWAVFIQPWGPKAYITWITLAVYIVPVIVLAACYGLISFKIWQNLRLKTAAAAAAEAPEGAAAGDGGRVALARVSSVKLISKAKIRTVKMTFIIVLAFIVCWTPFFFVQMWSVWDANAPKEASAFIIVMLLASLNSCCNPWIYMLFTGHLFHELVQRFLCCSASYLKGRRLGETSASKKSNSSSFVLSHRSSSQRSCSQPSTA

GABA = assay: Affinity to brain targets (panel); type: binding
HERG = HERG (Homo sapiens, UniProt Q12809); assay: Affinity to brain targets (panel); type: binding; details: HERG: human ether-a-go-go
MT = details: listed under MT; reference 12; cited from earlier work
Sigma2 = Sigma2 (Homo sapiens, UniProt Q5BJF2); assay: Affinity to brain targets (panel); type: binding; details: Sigma2 (Sigma 2)
BZP = assay: Affinity to brain targets (panel); type: binding; details: BZP: benzodiazepine
Na+ Channel = assay: Affinity to brain targets (panel); type: binding
CB1, CB2 = assay: Affinity to brain targets (panel); type: binding
AMPA = assay: Affinity to brain targets (panel); type: binding
DAT = DAT (Homo sapiens, UniProt Q01959); assay: Affinity to brain targets (panel); type: binding; details: DAT: dopamine transporters
SERT = SERT (Homo sapiens, UniProt P31645); assay: Affinity to brain targets (panel); type: binding; details: SERT: serotonin transporter
Ca++ channel = assay: Affinity to brain targets (panel); type: binding
D1-D5 = assay: Affinity to brain targets (panel); type: binding
5-HT2A-2C = assay: Affinity to brain targets (panel); type: binding
β1-3 = assay: Affinity to brain targets (panel); type: binding
5-HT3-7 = assay: Affinity to brain targets (panel); type: binding
I = assay: Affinity to brain targets (panel); type: binding

Chain of NOP (P41146 whole entry): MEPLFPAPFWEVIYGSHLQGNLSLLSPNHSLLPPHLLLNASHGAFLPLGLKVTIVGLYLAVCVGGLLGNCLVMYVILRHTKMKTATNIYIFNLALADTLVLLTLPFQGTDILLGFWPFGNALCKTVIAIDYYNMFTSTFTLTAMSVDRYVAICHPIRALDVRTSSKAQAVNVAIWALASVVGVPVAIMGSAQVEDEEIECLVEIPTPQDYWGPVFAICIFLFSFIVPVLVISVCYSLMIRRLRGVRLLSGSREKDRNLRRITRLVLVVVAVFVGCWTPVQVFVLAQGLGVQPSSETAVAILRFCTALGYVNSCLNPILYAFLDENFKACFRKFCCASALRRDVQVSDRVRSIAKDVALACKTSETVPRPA
Chain of SERT (P31645 whole entry, species assumed): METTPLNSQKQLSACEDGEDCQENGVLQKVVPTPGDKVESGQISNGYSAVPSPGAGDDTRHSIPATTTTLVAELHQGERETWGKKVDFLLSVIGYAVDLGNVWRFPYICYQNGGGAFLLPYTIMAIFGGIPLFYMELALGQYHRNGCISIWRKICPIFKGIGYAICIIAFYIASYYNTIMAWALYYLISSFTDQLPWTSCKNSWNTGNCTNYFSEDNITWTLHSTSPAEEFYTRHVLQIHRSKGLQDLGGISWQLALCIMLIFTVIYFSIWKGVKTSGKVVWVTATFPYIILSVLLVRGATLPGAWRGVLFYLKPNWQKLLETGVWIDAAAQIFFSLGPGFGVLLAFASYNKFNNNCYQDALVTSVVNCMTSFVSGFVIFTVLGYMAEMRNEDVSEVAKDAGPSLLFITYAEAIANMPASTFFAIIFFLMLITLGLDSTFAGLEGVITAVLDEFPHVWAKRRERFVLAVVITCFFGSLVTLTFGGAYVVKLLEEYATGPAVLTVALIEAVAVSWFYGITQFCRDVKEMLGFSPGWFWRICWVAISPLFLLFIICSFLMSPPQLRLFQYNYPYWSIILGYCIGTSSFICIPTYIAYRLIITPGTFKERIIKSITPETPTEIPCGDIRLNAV
Chain of DAT (Q01959 whole entry, species assumed): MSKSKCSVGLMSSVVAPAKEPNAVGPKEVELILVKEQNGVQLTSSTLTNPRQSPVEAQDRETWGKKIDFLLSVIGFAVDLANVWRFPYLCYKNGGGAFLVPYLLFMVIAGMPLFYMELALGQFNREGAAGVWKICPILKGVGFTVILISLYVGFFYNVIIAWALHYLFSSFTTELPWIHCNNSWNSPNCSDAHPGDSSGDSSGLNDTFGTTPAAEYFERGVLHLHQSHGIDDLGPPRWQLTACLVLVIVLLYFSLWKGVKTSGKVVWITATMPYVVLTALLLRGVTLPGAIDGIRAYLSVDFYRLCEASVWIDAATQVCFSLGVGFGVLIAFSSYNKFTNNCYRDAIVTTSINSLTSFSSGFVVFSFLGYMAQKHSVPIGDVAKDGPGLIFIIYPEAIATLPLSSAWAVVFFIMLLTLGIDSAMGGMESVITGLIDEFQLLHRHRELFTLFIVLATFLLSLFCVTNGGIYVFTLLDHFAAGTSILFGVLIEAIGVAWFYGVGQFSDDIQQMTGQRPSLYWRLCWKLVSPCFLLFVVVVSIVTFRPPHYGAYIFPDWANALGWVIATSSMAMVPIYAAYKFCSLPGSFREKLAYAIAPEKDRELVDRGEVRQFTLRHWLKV
Chain of DOR (P41143 whole entry): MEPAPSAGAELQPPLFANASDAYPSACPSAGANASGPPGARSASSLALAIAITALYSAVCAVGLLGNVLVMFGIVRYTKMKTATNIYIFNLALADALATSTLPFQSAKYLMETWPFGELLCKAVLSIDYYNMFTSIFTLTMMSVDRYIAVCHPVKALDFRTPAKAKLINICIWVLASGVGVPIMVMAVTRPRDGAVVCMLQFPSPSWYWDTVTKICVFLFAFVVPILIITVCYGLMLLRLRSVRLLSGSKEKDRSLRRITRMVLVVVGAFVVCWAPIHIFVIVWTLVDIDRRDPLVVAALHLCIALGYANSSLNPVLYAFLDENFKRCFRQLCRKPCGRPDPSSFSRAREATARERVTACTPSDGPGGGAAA
Chain of H1 (P35367 whole entry): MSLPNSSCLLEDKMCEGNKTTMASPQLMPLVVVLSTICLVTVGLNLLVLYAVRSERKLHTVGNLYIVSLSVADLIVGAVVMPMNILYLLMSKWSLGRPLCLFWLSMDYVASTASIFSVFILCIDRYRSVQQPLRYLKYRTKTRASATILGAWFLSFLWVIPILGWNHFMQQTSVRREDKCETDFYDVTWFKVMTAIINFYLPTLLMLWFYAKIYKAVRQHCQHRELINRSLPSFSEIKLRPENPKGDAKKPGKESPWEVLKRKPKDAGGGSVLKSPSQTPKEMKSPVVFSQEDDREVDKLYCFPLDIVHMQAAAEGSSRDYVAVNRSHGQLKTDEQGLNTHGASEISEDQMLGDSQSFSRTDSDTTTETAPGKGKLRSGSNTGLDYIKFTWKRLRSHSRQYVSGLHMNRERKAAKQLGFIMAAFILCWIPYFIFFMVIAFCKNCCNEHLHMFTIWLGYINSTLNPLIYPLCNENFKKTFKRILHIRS
Chain of KOR (P41145 whole entry): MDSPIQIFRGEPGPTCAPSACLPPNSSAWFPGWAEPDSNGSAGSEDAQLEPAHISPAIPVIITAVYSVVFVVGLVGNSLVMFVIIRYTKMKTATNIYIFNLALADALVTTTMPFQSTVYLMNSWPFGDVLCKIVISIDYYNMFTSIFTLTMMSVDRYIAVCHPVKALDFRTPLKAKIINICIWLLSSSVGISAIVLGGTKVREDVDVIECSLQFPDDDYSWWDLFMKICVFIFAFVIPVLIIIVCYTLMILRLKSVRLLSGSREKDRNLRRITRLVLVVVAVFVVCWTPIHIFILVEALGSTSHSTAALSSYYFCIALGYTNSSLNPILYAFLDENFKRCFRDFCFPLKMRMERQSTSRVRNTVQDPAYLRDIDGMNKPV
Chain of MDR1 (P08183 whole entry, species assumed): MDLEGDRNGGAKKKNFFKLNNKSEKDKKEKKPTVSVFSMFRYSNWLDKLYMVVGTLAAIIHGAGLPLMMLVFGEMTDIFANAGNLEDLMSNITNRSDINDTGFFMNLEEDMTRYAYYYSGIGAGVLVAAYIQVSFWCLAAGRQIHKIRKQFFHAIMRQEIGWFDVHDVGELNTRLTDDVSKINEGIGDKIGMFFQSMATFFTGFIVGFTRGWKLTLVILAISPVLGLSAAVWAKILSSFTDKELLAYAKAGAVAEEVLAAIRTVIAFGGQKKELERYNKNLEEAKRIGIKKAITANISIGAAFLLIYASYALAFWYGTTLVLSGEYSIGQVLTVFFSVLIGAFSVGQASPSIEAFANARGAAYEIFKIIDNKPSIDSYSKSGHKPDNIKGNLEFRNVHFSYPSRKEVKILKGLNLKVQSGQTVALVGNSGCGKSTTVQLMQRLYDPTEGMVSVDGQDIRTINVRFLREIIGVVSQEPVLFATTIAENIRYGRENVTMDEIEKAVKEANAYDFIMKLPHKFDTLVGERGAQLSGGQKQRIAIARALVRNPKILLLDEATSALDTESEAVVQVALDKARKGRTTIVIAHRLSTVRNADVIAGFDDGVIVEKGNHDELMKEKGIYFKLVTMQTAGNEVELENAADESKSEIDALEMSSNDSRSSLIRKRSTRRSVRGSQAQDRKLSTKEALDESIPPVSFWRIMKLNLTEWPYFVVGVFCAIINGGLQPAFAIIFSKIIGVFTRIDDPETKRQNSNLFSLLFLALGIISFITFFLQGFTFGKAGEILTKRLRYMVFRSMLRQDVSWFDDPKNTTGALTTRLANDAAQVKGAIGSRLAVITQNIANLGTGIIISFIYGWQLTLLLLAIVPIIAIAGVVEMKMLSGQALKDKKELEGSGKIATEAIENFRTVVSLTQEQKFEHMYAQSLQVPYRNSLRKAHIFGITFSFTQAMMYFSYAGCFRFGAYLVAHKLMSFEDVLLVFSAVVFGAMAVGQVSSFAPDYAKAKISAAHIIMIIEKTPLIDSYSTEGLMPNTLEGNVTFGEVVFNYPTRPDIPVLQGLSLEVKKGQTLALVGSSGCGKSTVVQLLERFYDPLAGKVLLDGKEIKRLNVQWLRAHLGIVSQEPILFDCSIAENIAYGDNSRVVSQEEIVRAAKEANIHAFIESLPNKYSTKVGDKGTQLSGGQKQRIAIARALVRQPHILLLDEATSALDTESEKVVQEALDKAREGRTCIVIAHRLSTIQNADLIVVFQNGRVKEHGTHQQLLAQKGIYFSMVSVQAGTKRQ
Chain of Smoothened (Q99835 28-787): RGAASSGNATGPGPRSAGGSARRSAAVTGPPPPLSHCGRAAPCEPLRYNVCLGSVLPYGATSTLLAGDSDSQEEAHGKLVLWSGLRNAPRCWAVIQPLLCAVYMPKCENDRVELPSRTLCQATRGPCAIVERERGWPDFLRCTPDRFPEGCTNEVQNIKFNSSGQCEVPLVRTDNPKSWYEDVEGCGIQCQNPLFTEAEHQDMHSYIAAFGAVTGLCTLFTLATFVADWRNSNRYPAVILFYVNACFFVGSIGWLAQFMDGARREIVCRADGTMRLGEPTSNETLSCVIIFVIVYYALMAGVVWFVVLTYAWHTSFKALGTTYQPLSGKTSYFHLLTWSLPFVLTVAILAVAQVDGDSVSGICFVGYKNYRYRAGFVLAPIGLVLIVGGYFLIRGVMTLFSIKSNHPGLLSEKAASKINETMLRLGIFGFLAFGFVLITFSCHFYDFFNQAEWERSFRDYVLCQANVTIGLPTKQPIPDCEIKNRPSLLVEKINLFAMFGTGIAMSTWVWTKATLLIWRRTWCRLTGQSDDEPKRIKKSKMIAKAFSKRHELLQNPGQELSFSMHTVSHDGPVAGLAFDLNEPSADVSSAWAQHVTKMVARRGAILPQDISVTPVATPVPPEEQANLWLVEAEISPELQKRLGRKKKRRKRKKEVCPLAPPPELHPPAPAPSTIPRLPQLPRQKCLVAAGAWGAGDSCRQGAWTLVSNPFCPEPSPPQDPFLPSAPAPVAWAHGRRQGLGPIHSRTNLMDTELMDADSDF

COc1ccc(N(C)c2ncnc3occ(C)c23)cc1 [HD-800, reference compound]
pKi (PBR): 5.63 | pKi (H1): < 5.00 | binding to a panel / variety of kinases (panel of kinases): selective | pKi (VMAT): < 5.00 | pKi (5-HT1A-1E): < 5.00 | pKi (KA): < 5.00 | pKi (MOR): < 5.00 | pKi (H2): < 5.00 | pKi (Sigma1): < 5.00 | pKi (PKC): < 5.00 | pKi (α2A-2C): < 5.00 | pKi (NET): < 5.00 | pIC50 (Microtubule): 8.49 | pKi (KOR): < 5.00 | pKi (NT): < 5.00 | BBB penetration [1]: BBB penetrant | tumor growth inhibition (TGI) compared with paclitaxel (tumor xenografts): higher tumor growth inhibition (TGI) than paclitaxel | pKi (MDR1): < 5.00 | pKi (Smoothened): < 5.00 | pKi (EP): < 5.00 | pKi (DOR): < 5.00 | pKi (H3, H4): < 5.00 | pKi (Adenosine): < 5.00 | pKi (mGluR): < 5.00 | pKi (NOP): < 5.00 | pKi (NK): < 5.00 | pKi (NMDA): < 5.00 | pKi (M): < 5.00 | pKi (α1A-1C): < 5.00 | pKi (Oxytocin): < 5.00 | pKi (GABA): < 5.00 | pKi (HERG): < 5.00 | GI50 (MT): < 0.01 µM | pKi (Sigma2): < 5.00 | pKi (BZP): < 5.00 | pKi (Na+ Channel): < 5.00 | pKi (CB1, CB2): < 5.00 | pKi (AMPA): < 5.00 | pKi (DAT): < 5.00 | pKi (SERT): < 5.00 | pKi (Ca++ channel): < 5.00 | pKi (D1-D5): < 5.00 | pKi (5-HT2A-2C): < 5.00 | pKi (β1-3): < 5.00 | pKi (5-HT3-7): < 5.00 | pKi (I): < 5.00
